{"source": "patent EP1222265B1", "about": "“NOVEL NICOTINIC ACETYLCHOLINE RECEPTOR SUBUNIT, ITS ISOLATION AND USE” (Sanofi-Aventis, priority 1999, dated 2001)", "key": {"[1]": {"target": "T1, Heteromeric α9-HNARA10 receptors (Homo sapiens, UniProt Q9GZZ6+Q9UGM1)", "T1 construct": "expressed in transfected cells; host or cells: Xenopus laevis oocytes (nuclear injection of cDNA)", "T1 sequence (Q9UGM1 23-479)": "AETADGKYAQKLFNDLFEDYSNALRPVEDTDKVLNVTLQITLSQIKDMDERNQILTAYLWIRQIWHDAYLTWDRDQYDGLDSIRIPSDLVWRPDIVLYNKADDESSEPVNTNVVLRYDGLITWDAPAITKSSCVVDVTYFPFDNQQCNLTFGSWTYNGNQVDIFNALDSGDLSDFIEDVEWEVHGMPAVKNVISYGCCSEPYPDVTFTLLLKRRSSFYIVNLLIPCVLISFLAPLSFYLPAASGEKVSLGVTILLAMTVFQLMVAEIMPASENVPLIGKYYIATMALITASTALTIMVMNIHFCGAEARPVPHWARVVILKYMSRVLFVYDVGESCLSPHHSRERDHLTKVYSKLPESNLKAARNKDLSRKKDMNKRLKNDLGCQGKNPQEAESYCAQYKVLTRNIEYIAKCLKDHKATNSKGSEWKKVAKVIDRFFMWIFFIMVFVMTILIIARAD", "T1 sequence (Q9GZZ6 25-450)": "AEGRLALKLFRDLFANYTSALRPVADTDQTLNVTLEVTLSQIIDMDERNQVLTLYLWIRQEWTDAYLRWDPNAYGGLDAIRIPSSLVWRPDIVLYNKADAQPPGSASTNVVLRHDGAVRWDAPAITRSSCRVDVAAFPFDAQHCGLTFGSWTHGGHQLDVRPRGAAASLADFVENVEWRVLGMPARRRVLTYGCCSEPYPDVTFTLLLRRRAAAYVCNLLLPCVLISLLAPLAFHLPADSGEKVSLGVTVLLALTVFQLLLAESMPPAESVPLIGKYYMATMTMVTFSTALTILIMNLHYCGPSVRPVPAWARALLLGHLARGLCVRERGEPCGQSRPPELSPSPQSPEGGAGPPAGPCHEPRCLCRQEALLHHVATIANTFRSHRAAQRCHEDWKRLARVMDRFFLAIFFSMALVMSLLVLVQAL", "test": "ACh-evoked currents in Xenopus laevis oocytes injected with human α9 and HNARA10 cDNAs", "assay_type": "cell-based", "conditions": "for antagonism of ACh responses: α9+HNARA10 receptors"}, "homomeric α9 receptors": {"target": "T2, homomeric α9 receptors (Homo sapiens, UniProt Q9UGM1)", "T2 construct": "expressed in transfected cells; host or cells: Xenopus laevis oocytes (cDNA injection)", "T2 sequence (Q9UGM1 23-479)": "as the sequence (Q9UGM1 23-479) above", "assay_type": "cell-based"}, "[2]": {"target": "human nicotinic acetylcholine receptor α9 subunit (homomeric α9 receptors) (human) (UniProt Q9UGM1)", "sequence (Q9UGM1 23-479)": "as above", "test": "cell-based or functional assay"}}, "note": "Read-outs that look alike come from different tables or passages of the source.", "data": [{"compound": "COc1cc2c3cc1Oc1cc(ccc1O)C[C@@H]1c4c(cc(OC)c(O)c4Oc4ccc(cc4)C[C@@H]3N(C)CC2)CC[N+]1(C)C", "note": "[d-tubocurarine]", "values": [{"measurement": "antagonism of ACh responses", "setting": "[1]", "value": "fully antagonized"}, {"measurement": "antagonism of ACh responses", "setting": "homomeric α9 receptors; α9 receptors", "value": "fully antagonized"}]}, {"compound": "C[N+]1(C)CCN(c2ccccc2)CC1", "note": "[DMPP]", "values": [{"measurement": "agonist response", "setting": "[1]", "value": "did not elicit any response"}, {"measurement": "agonist response", "setting": "homomeric α9 receptors", "value": "did not elicit any response"}]}, {"compound": "C[N+](C)(C)CCOC(N)=O", "note": "[carbachol]", "values": [{"measurement": "evoked current (partial agonist)", "setting": "[1]; oocytes expressing the mixture α9-HNARA10, from dose-response curves", "value": "about 72%"}]}, {"compound": "HNARA10 polypeptide (human nicotinic acetylcholine receptor alpha 10 subunit)", "values": [{"measurement": "amplitude of acetylcholine-evoked currents in Xenopus oocytes, α9-HNARA10 mixture against α9 alone", "setting": "[2]", "value": 100, "unit": "fold"}]}, {"compound": "Clc1ccc(C2CC3CCC2N3)cn1", "note": "(centres unmarked) [epibatidine]", "values": [{"measurement": "agonist response", "setting": "[1]; α9+HNARA10 expressing oocytes", "value": "did not elicit any response"}, {"measurement": "agonist response", "setting": "homomeric α9 receptors; α9 expressing oocytes", "value": "did not elicit any response"}]}, {"compound": "CO[C@H]1CC=C2CCN3CCC4=C(CC(=O)OC4)[C@]23C1", "note": "[dihydro-β-erythroidine]", "values": [{"measurement": "antagonism of ACh responses", "setting": "[1]", "value": "did not have any effect"}]}, {"compound": "CN1CCCC1c1cccnc1", "note": "(centres unmarked) [nicotine]", "values": [{"measurement": "agonist response", "setting": "[1]", "value": "did not elicit any response"}, {"measurement": "agonist response", "setting": "homomeric α9 receptors", "value": "did not elicit any response"}]}]}
